Where two headings read alike, the source gives them in different places. Each block holds one compound with its values, some of them ahead of it.
Tests used:
[1] = cited from earlier work
[2] = tested on: congestive heart failure (CHF); details: within the first 4-8 weeks; thought to be a consequence of fluid retention; cited from earlier work
[3] = tested on: patients with acute CHF; details: intravenous, doses greater than 1 mg/hr; cited from earlier work
[4] = 1-10 mg/day; cited from earlier work
[5] = tested on: participants with type 2 diabetes and overt diabetic nephropathy; details: cited from earlier work; for median decrease of UACR: median follow-up 4 months, placebo 9.7%; for discontinuation of trial medications due to adverse events: placebo 1.5%; for deaths: placebo 12
[6] = tested on: individuals with a systolic blood pressure above 140 mmHg receiving at least three blood-pressure-lowering drugs; details: cited from earlier work
[7] = tested on: CHF; details: at higher doses; cited from earlier work
[8] = tested on: subjects with type 2 diabetes and albuminuria on stable doses of RAS inhibitors; test: Study M10-815, Phase 2a placebo controlled study of atrasentan; assay type: in vivo, human; details: for reduction in the mean UACR from baseline: placebo 11%; for subjects with mild to moderate peripheral edema: placebo 9%
Experimental: In a Phase 2a double-blind, randomized, placebo controlled study (referred to herein as M10-815), subjects with type 2 diabetes and albuminuria who were on stable doses of RAS inhibitors were administered atrasentan HCl at 0.25, 0.75 or 1.75 mg QD for 8 weeks.

[9] = tested on: patients with type 2 diabetic nephropathy; test: Two Phase 2b 12 week placebo-controlled studies of atrasentan in residual albuminuria; assay type: in vivo, human; details: for Linear regression coefficient, hemoglobin response: hemoglobin change after two weeks; for Linear regression coefficient, weight response: weight change after two weeks
Experimental: Two Phase 2b, multicenter, prospective, randomized, double-blinded, placebo-controlled, 12 week studies were conducted to evaluate the efficacy and safety of atrasentan compared to placebo in reducing residual albuminuria. Atrasentan was studied at doses of 0.75 mg QD and 1.25 mg QD. The study methodologies were the identical, but for the location. (NCT01356849 in U.S., Canada, and Taiwan; NCT10424319 in Japan). Additional clinical details can be found in Kohan, D E, et al., “Predictors of Atrasentan-Associated Fluid Retention and Change in Albuminuria in Patients with Diabetic Nephropathy,” Clin J Am Soc Nephrol, September 2015, 10:1568-1574, which is hereby incorporated by reference in its entirety. Observations in body weight changes and hemoglobin changes may be used as surrogate markers for changes in fluid retention. Demographic parameters were similar between the placebo and atrasentan 0.75 and 1.25 mg/d arms (Table 1). The following abbreviations are used within the table: BNP=B-type natriuretic peptide; DBP=diastolic blood pressure; eGFR=estimated glomerular filtration rate; HbA1c=glycated hemoglobin; RAS=renin-angiotensin system; SBP=systolic blood pressure; UACR=urinary albumin to creatinine ratio. Table 1 is reproduced in part from de Zeeuw D, et al., The endothelin antagonist atrasentan lowers residual albuminuria in patients with type 2 diabetic nephropathy. J Am Soc Nephrol 25: 1083-1093, 2014, which is hereby incorporated by reference in its entirety. Values within Table 1 are mean±standard deviation unless stated otherwise. The abbreviations used in Table 3 include BP=blood pressure; eGFR=estimated glomerular filtration rate; HbA1c=glycated hemoglobin; HOMA=homeostatic model assessment. The following covariates were included in the initial backward selection model: treatment assignment, age, gender, body weight, Hb, eGFR, albuminuria, systolic blood pressure (BP), eGFR, log transformed homeostatic metabolic assessment (HOMA) product, log-transformed B-type natriuretic peptide (BNP), thiazide and loop-diuretic use. Systolic blood pressure and atrasentan dose were not included in the final logistic regression models for body weight and hemoglobin, respectively.

[10] = tested on: subjects with type 1 diabetes and proteinuria not receiving RAS inhibitors; test: Study M96-499, Phase 2 cross-over study of atrasentan; assay type: in vivo, human
Text: The most commonly experienced treatment-emergent adverse events in the atrasentan group were peripheral edema (64%), pulmonary edema (18%), rhinitis (36%) and headache (18%), whereas in the placebo group there was no peripheral edema, but there were reports of rhinitis (11%) and headache (56%).

[11] = after 14 weeks, 50, 100 or 300 mg once daily, non-dose-dependent
[12] = 0.75 mg/day vs. placebo, after two weeks
[13] = 0.75 mg/day, Recovery (30 days)
[14] = 1.25 mg/day vs. placebo, after two weeks
[15] = 1.25 mg/day, Recovery (30 days)

SMILES: Cc1cc2c(cc1CC(=O)c1sccc1S(=O)(=O)Nc1onc(C)c1Cl)OCO2 [Sitaxsentan]
edema ([1]; higher doses): significantly causes edema
edema ([1]; lower doses (100 or 300 mg daily)): less tendency to cause edema

SMILES: COc1ccccc1Oc1c(NS(=O)(=O)c2ccc(C(C)(C)C)cc2)nc(-c2ncccn2)nc1OCCO [Bosentan]
worsening of congestive heart failure [2]: associated with early worsening of congestive heart failure (CHF)

SMILES: COc1ccccc1Oc1c(NS(=O)(=O)c2ccc(C(C)C)cn2)nc(-c2ccnc(-c3nnn[nH]3)c2)nc1OCCO [tezosentan]
urine output [3]: reduced urine output

SMILES: COC(c1ccccc1)(c1ccccc1)[C@H](Oc1nc(C)cc(C)n1)C(=O)O [Ambrisentan]
edema incidence [4]: 25%

SMILES: COc1ccccc1Oc1c(NS(=O)(=O)c2ccc(C)cn2)nc(-c2ccncc2)nc1OC [avosentan]
median decrease of UACR ([5]; 25 mg): 44%
discontinuation of trial medications due to adverse events ([5]; 25 mg): 19.69%
deaths ([5]; 25 mg): 21
median decrease of UACR ([5]; 50 mg): 49%
discontinuation of trial medications due to adverse events ([5]; 50 mg): 18.2%
deaths ([5]; 50 mg): 17

SMILES: COc1cc(OC)nc(O[C@H](C(=O)O)C(OC)(c2ccccc2)c2ccccc2)n1 [darusentan]
reduction in diastolic clinic seated blood pressure compared with placebo [6, 11]: ~5 mmHg
reduction in systolic clinic seated blood pressure compared with placebo [6, 11]: about 10 mmHg
patients discontinuing because of fluid retention or peripheral edema ([6]; combined darusentan treatment groups): 2%
patients with edema and/or fluid retention reported ([6]; darusentan groups combined, placebo 14%): 27%
patients with cardiac-related serious adverse events ([6]; patients taking darusentan): five
worsening of CHF [7]: tended to worsen CHF

subjects with mild to moderate peripheral edema ([8]; 0.25 mg QD): 14%
subjects with mild to moderate peripheral edema ([8]; 0.75 mg QD): 18%
subjects with mild to moderate peripheral edema ([8]; 1.75 mg QD): 46%
Logistic regression association with ≧1.3 g/dl fall in Hb [9, 12]: no significant association
Logistic regression odds ratio (95% CI), ≧2 kg weight gain [9, 12]: 3.0 (1.0-8.5)
Linear regression coefficient, hemoglobin response ([9]; 0.75 mg/day vs. placebo): −0.7
Linear regression coefficient, weight response ([9]; 0.75 mg/day vs. placebo): 0.8
BNP, median ([9]; 0.75 mg/day, Baseline): 33.0 pg/mL
Hemoglobin, Mean (SD) ([9]; 0.75 mg/day, Baseline): 12.9 (1.5) g/dL
Weight, Mean (SD) ([9]; 0.75 mg/day, Baseline): 87.1 (22.1) kg
Hemoglobin, Mean (SD) [9, 13]: 12.4 (1.5) g/dL
Weight, Mean (SD) [9, 13]: 85 (23) kg
Hemoglobin, Mean (SD) ([9]; 0.75 mg/day, Week 2): 12.0 (1.5) g/dL
Weight, Mean (SD) ([9]; 0.75 mg/day, Week 2): 88.0 (22.2) kg
Weight, Mean (SD) ([9]; 0.75 mg/day, Week 6): 87.3 (21.8) kg
BNP, median ([9]; 0.75 mg/day, Week 12): 33.1 pg/mL
Hemoglobin, Mean (SD) ([9]; 0.75 mg/day, Week 12): 11.8 (1.6) g/dL
Weight, Mean (SD) ([9]; 0.75 mg/day, Week 12): 87.3 (22.3) kg
Logistic regression odds ratio (95% CI), ≧1.3 g/dL hemoglobin fall [9, 14]: 5.6 (2.5-12.7)
Logistic regression odds ratio (95% CI), ≧2 kg weight gain [9, 14]: 6.6 (2.3-18.6)
Linear regression coefficient, hemoglobin response ([9]; 1.25 mg/day vs. placebo): −1.0
Linear regression coefficient, weight response ([9]; 1.25 mg/day vs. placebo): 1.3
BNP, median ([9]; 1.25 mg/day, Baseline): 33.5 pg/mL
Hemoglobin, Mean (SD) ([9]; 1.25 mg/day, Baseline): 12.9 (1.8) g/dL
Weight, Mean (SD) ([9]; 1.25 mg/day, Baseline): 88.3 (18.4) kg
Hemoglobin, Mean (SD) [9, 15]: 12.5 (1.9) g/dL
Weight, Mean (SD) [9, 15]: 88 (19) kg
Hemoglobin, Mean (SD) ([9]; 1.25 mg/day, Week 2): 11.8 (1.8) g/dL
Weight, Mean (SD) ([9]; 1.25 mg/day, Week 2): 89.4 (18.7) kg
Weight, Mean (SD) ([9]; 1.25 mg/day, Week 6): 89.6 (19.0) kg
BNP, median ([9]; 1.25 mg/day, Week 12): 37.0 pg/mL
Hemoglobin, Mean (SD) ([9]; 1.25 mg/day, Week 12): 11.8 (1.8) g/dL
Weight, Mean (SD) ([9]; 1.25 mg/day, Week 12): 89.0 (19.2) kg
hemoglobin (Hb) decrease ([9]; both atrasentan groups after 2 weeks, persisted throughout treatment): approximately 1 g/dl
Hb after treatment discontinuation ([9]; by 30 days after treatment discontinuation): normalized
change in B-natriuretic peptide (BNP) ([9]; patients who received atrasentan): no significant change
SMILES: CCCCN(CCCC)C(=O)CN1C[C@H](c2ccc3c(c2)OCO3)[C@@H](C(=O)O)[C@@H]1c1ccc(OC)cc1 [Atrasentan, (2R,3R,4S)-4-(1,3-benzodioxol-5-yl)-1-[2-(dibutylamino)-2-oxoethyl]-2-(4-methoxyphenyl)pyrrolidine-3-carboxylic acid]
reduction in the mean UACR from baseline ([8]; 0.25 mg QD for 8 weeks, non-significant, P=0.291): 21%
reduction in the mean UACR from baseline ([8]; 0.75 mg QD for 8 weeks, 1-sided P=0.023): 42%
reduction in the mean UACR from baseline ([8]; 1.75 mg QD for 8 weeks, 1-sided P=0.073): 35%
UACR, median ([9]; 0.75 mg/day, Baseline): 878 mg/g
UACR, median [9, 13]: 1051 mg/g
UACR, median ([9]; 0.75 mg/day, Week 2): 573 mg/g
UACR, median ([9]; 0.75 mg/day, Week 6): 636 mg/g
UACR, median ([9]; 0.75 mg/day, Week 12): 521 mg/g
UACR, median ([9]; 1.25 mg/day, Baseline): 826 mg/g
UACR, median [9, 15]: 727 mg/g
UACR, median ([9]; 1.25 mg/day, Week 2): 515 mg/g
UACR, median ([9]; 1.25 mg/day, Week 6): 461 mg/g
UACR, median ([9]; 1.25 mg/day, Week 12): 470 mg/g
body weight increase ([9]; after 2 weeks of treatment, placebo decreased approximately 1 kg): approximately 1 kg
mean arterial blood pressure (BP) ([10]; 5 mg QD): reduced
pulmonary edema, treatment-emergent adverse event ([10]; 5 mg QD): 18%
peripheral edema, treatment-emergent adverse event ([10]; 5 mg QD, none in placebo): 64%
rhinitis, treatment-emergent adverse event ([10]; 5 mg QD, placebo 11%): 36%
headache, treatment-emergent adverse event ([10]; 5 mg QD, placebo 56%): 18%
reduction in urinary albumin excretion ([10]; 5 mg daily (QD)): 65%

From US20160128980A1, “METHODS OF TREATING CKD USING PREDICTORS OF FLUID RETENTION” (AbbVie Inc., priority 2014, published 2016)
